For experiment [1], the target named is T1, GST-tagged Tnks-1 (1023-1327 aa) (Homo sapiens, UniProt O95271).
T1 construct: GST-tagged Tnks-1 (1023-1327 aa, prepared in-house); made in house
Briefly: TNKS1 activity ELISA (autoparsylation). As to conditions: activity ELISA, 1 hour at 30° C; read-out: IC50 TNKS1 ELISA. Type of experiment: biochemical. As to the method:
(§1) Description of the TNKS1 and TNKS2 ELISA Assay
(§2) Biochemical Activity Testing of TNKS 1 and 2: Activity ELISA (Autoparsylation Assay)
(§3) For analysis of autoparsylation activity of TNKS 1 and 2 an activity ELISA is performed: In the first step GST tagged TNKS is captured on a Glutathione coated plate. Then the activity assay with biotinylated NAD is performed in the absence/presence of the compounds. During the enzymatic reaction GST tagged TNKS transfers biotinylated ADP-ribose to itself from biotinylated NAD as co-substrate. For the detection streptavidin-HRP conjugate is added that binds to the biotinylated TNKS and is thereby captured to the plates. The amount of biotinylated resp. autoparsylated TNKS is detected with a luminescence substrate for HRP. The level of the luminescence signal correlates directly with the amount of autoparsylated TNKS and therefore with activity of TNKS.
(§4) The activity ELISA is performed in 384 well Glutathione coated microtiter plates (Express capture Glutathione coated plate, Biocat, Heidelberg, Germany). The plates are pre-equilibrated with PBS. Then the plates are incubated with 50 μl 20 ng/well GST-tagged Tnks-1 (1023-1327 aa, prepared in-house), respectively GST-tagged Tnks-2 (873-1166 aa, prepared in-house) in assay buffer (50 mM HEPES, 4 mM Mg-chloride, 0.05% Pluronic F-68, 2 mM DTT, pH 7.7) overnight at 4° C. The plates are washed 3 times with PBS-Tween-20. The wells are blocked by incubation at room temperature for 20 minutes with 50 μl blocking buffer (PBS, 0.05% Tween-20, 0.5% BSA). Afterwards the plates are washed 3 times with PBS-Tween-20. The enzymatic reaction is performed in 50 μl reaction solution (50 mM HEPES, 4 mM Mg-chloride, 0.05% Pluronic F-68, 1.4 mM DTT, 0.5% DMSO, pH 7.7) with 10 μM bio-NAD (Biolog, Life science Inst., Bremen, Germany) as co-substrate in the absence or presence of the test compound (10 dilution concentrations) for 1 hour at 30° C. The reaction is stopped by 3 times washing with PBS-Tween-20. For the detection 50 μl of 20 ng/μl Streptavidin, HRP conjugate (MoBiTec, Göttingen, Germany) in PBS/0.05% Tween-20/0.01% BSA are added and the plates are incubated for 30 minutes at room temperature. After three times washing with PBS-Tween-20 50 μl of SuperSignal ELISA Femto Maximum sensitivity substrate solution (ThermoFisherScientific (Pierce), Bonn, Germany) are added. Following a 1 minute incubation at room temperature luminescence signals are measured with an Envision multimode reader (Perkin Elmer LAS Germany GmbH) at 700 nm. The full value used is the inhibitor-free reaction. The pharmacological zero value used is XAV-939 (Tocris) in a final concentration of 5 μM. The inhibitory values (IC50) are determined using either the program Symyx Assay Explorer® or Condosseo® from GeneData.
For orientation: An ELISA detects its analyte on a solid surface through an enzyme-linked reagent.

The target of experiment [2] is T2, GST-tagged Tankyrase-1 (1023-1327 aa) (Homo sapiens, UniProt O95271).
T2 construct: GST-tagged Tankyrase-1 (1023-1327 aa)
T2 sequence (O95271 1023-1327): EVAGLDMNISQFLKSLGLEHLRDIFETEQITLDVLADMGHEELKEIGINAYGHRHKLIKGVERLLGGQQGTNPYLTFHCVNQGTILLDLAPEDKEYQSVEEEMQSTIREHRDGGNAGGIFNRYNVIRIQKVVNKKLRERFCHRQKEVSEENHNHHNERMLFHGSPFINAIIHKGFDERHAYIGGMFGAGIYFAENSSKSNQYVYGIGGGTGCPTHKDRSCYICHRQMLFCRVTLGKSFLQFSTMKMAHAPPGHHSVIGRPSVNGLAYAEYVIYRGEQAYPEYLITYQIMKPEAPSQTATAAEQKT
Briefly: Tankyrase 1 autoparsylation HTRF enzyme assay. As to conditions: HTRF autoparsylation, 90 min at 30° C; read-out: IC50 TNKS1 enzyme assay. Type of experiment: biochemical. As to the method: (§5) Biochemical Activity Testing of Tankyrase 1 and 2: Autoparsylation Assay
(§6) The autoparsylation assay is run in two steps: the enzymatic reaction in which GST-tagged Tankyrase-1, resp Tankyrase-2 transferred biotinylated ADP-ribose to itself from biotinylated NAD as co-substrate and the detection reaction where a time resolved FRET between cryptate labelled anti-GST bound to the GST tag of the enzyme and Xlent® labelled-streptavidin bound the biotin-parsylation residue is analysed. The autoparsylation activity was detectable directly via the increase in HTRF signal.
(§7) The autoparsylation assay is performed as 384-well HTRF® (Cisbio, Codolet, France) assay format in Greiner low volume nb 384-well microtiter plates and is used for high throughput screen. 250 nM GST-tagged Tankyrase-1 (1023-1327 aa), respectively about 250 nM GST-tagged Tankyrase-2 (873-1166 aa) and 5 μM bio-NAD (Biolog, Life science Inst., Bremen, Germany) as co-substrate are incubated in a total volume of 5 μl (50 mM HEPES, 4 mM Mg-chloride, 0.05% Pluronic F-68, 1.4 mM DTT, 0.5% DMSO, pH 7.7) in the absence or presence of the test compound (10 dilution concentrations) for 90 min at 30° C. The reaction is stopped by the addition of 1 μl 50 mM EDTA solution. 2 μl of the detection solution (1.6 μM SA-Xlent® (Cisbio, Codolet, France), 7.4 nM Anti-GST-K® (Eu-labelled anti-GST, Cisbio, Codolet, France) in 50 mM HEPES, 800 mM KF, 0.1° A. BSA, 20 mM EDTA, 0.1% CHAPS, pH 7.0) are added. After 1 h incubation at room temperature the HTRF is measured with an Envision multimode reader (Perkin Elmer LAS Germany GmbH) at excitation wavelength 340 nm (laser mode) and emission wavelengths 615 nm and 665 nm. The ratio of the emission signals is determined. The full value used is the inhibitor-free reaction. The pharmacological zero value used is XAV-939 (Tocris) in a final concentration of 5 μM. The inhibitory values (IC50) are determined using either the program Symyx Assay Explorer® or Condosseo® from GeneData.
A general note: Time-resolved FRET reads energy transfer from a long-lived donor to a nearby acceptor.

The target in experiment [3] is T3, GST-tagged Tnks-2 (873-1166 aa) (Homo sapiens, UniProt Q9H2K2).
T3 construct: GST-tagged Tnks-2 (873-1166 aa, prepared in-house); made in house
T3 sequence (Q9H2K2 873-1166): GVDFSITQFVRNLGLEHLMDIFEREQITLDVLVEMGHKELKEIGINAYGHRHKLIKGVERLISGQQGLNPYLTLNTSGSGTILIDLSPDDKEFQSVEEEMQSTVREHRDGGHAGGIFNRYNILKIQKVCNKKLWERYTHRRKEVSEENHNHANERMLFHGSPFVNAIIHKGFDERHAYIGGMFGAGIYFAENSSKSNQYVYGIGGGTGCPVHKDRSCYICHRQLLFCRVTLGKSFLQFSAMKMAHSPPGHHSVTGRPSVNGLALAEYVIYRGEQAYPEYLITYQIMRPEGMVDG
Briefly: TNKS2 activity ELISA (autoparsylation). Type of experiment: biochemical. Conditions: activity ELISA, 1 hour at 30° C; read-out: IC50 TNKS2 ELISA. As to the method: as §1, §2, §3, §4

The test system of experiment [4] is Tankyrase (Axin2 level in DLD1 cells). The experiment can be described thus: Cellular inhibition of Tankyrase, Axin2 Luminex assay in DLD1 cells. As to conditions: Homo sapiens, DLD-1, 24 hours, Axin2 level increase, read-out: IC50 Cell assay. In kind it is cell-based. As to the method: Measurement of Cellular Inhibition of Tankyrase
Since Tankyrases have been described to modulate cellular level of Axin2 (Huang et al., 2009; Nature) the increase of Axin2 level is used as read-out for determination of cellular inhibition of Tankyrases in a Luminex based assay.
Cells of the colon carcinoma cell line DLD1 are plated in 96 well plates with 1.5×10^4 cells per well. Next day, cells are treated with a serial dilution of test compound in seven steps as triplicates with a final DMSO concentration of 0.3%. After 24 hours, cells are lysed in lysis buffer (20 mM Tris/HCl pH 8.0, 150 mM NaCl, 1% NP40, 10% Glycerol) and lysates are cleared by centrifugation through a 96 well filter plate (0.65 μm). Axin2 protein is isolated from cell lysates by incubation with a monoclonal anti-Axin2 antibody (R&D Systems #MAB6078) that is bound to fluorescent carboxybeads. Then, bound Axin2 is specifically detected with a polyclonal anti-Axin2 antibody (Cell Signaling #2151) and an appropriate PE-fluorescent secondary antibody. The amount of isolated Axin2 protein is determined in a Luminex^200 machine (Luminex Corporation) according to the manufacturer's instruction by counting 100 events per well. Inhibition of Tankyrase by test compounds results in higher levels of Axin2 which directly correlates with an increase of detectable fluorescence. As controls cells are treated with solvent alone (neutral control) and with a Tankyrase reference inhibitor IWR-2 (3E-06 M) which refers as control for maximum increase of Axin2. For analysis, the obtained data are normalized against the untreated solvent control and fitted for determination of the EC50 values using the Assay Explorer software (Accelrys).

Experiment [5] has as its target T4, GST-tagged Tankyrase-2 (873-1166 aa) (Homo sapiens, UniProt Q9H2K2).
T4 construct: GST-tagged Tankyrase-2 (873-1166 aa)
Briefly: Tankyrase 2 autoparsylation HTRF enzyme assay. Conditions: HTRF autoparsylation, 90 min at 30° C; read-out: IC50 TNKS2 enzyme assay. In kind it is biochemical. As to the method: as §5, §6, §7

The subject of another experiment is β-catenin. Conditions: Huang et al., 2009, Nature; by increasing AXIN1 and AXIN2 levels; cited from earlier work.
A further experiment deals with DLD-1-cancer cells. As to conditions: Huang et al., 2009, Nature; cited from earlier work.

T4 sequence (Q9H2K2 873-1166): as above
T1 sequence (O95271 1023-1327): as the sequence (O95271 1023-1327) above

As for `O=C(CCc1ccccc1)Nc1nncc2ccccc12` [Compound A14, 3-phenyl-N-phthalazin-1-yl-propionamide], the IC50 (in general, the concentration needed to halve the response being measured) in experiment [1] was less than 0.3 µM; in experiment [2], less than 0.3 µM; in experiment [3] it was less than 0.3 µM; in experiment [4] it was 3 to 50 µM; in experiment [5], 0.3 to 3 µM.
Regarding `O=C(CCc1cccc(Cl)c1Cl)Nc1nncc2ccccc12` [Compound A17, 3-(2,3-dichloro-phenyl)-N-phthalazin-1-yl-propionamide], the IC50 is less than 0.3 µM in experiment [1]; less than 0.3 µM in experiment [2]; less than 0.3 µM in experiment [3]; 3 to 50 µM in experiment [4]; 0.3 to 3 µM in experiment [5].
Consider `Oc1nc(-c2ccc(C(F)(F)F)cc2)nc2c1CSCC2` [XAV939], for which the “Wnt-stimulated accumulation of β-catenin” value with β-catenin was “blocked”. In the experiment with DLD-1-cancer cells, the “growth of DLD-1-cancer cells” value is listed as “inhibits growth”.

The record behind these values is patent publication US9751842B2, “Phthalazine derivatives” (Merck Patent GmbH, priority 2013, dated 2017).
